The values that follow come from PMC9611259, “Antimicrobial Peptides Active in In Vitro Models of Endodontic Bacterial Infections Modulate Inflammation in Human Cardiac Fibroblasts” (Pharmaceutics, 2022).

≈ marks a conversion by molar mass, not a printed value.

The test system of series [1] is E. coli TG1. It counts as cell-based, Escherichia coli. Conditions: 24 h preformed biofilm challenged with peptide 14 h at 37 °C, crystal violet OD595, triplicate wells. On the procedure: (§1) For MBIC, the bacterial suspension (200 μL) of E. faecalis PE, E. faecalis 51299, E. coli TG1, or E. coli LC711, obtained as above, was added to wells in triplicate, in a 96-well U-bottom plate and incubated at 37 °C for 24h. The supernatant was removed, and 200 μL M33D and M33i/l diluted in TSB was added to the wells in twofold serial dilutions of each peptide.
(§2) Untreated bacteria were used as positive control. After 14 h of static incubation at 37 °C, wells were washed thrice with PBS and fixed with PFA 4% in PBS (200 μL) for 30 min at room temperature. Wells were then washed three times, and crystal violet (1% in water) was added and incubated for 30 min in the dark. Wells were again washed, and the color dissolved with ethanol/acetone 80:20. Color was read at 595 nm. The MBIC is the lowest concentration of an antibiotic that results in an OD595 nm difference of ≤10% of the mean of two control well readings.
(§3) Biofilm inhibition activity was evaluated on the basis of two parameters: the biofilm prevention concentration (BPC) and the minimal biofilm inhibition concentration (MBIC). The BPC is the lowest concentration of peptide that results in 10% lower biofilm formation compared to untreated controls. The biofilm was measured after removing planktonic cells by washing the wells, previously incubated for 24 h with the bacteria and the peptide. MBIC is the lowest concentration of peptide that results in a 10% reduction in preformed biofilm compared to untreated controls. A 24 h biofilm was challenged with serial dilutions of the peptides for 14 h. Then after removal of planktonic cells, the residual biofilm was measured. Crystal violet absorbance at […] was used to measure biofilm in the case of both parameters.

Series [2] has as its system E. coli LC711. It counts as cell-based, Escherichia coli. The settings on record: 24 h preformed biofilm challenged with peptide 14 h at 37 °C, crystal violet OD595, triplicate wells. On the procedure: as §1, §2, §3
Series [3] can be described thus: Eukaryotic cell viability assay (MTT). Conditions: mouse; 24 h incubation at 37 °C, MTT, n = 3; read-out: EC50 cytotoxicity. It counts as cell-based, murine. On the procedure:
RAW 264.7 cells, 5 × 10^3 per well, were seeded in 96-well plates and incubated for 24 h at 37 °C in a 5% CO2 atmosphere. A 100 μL volume of peptides at different concentrations in fresh medium was then added to the wells and kept for 24 h. Then 20 μL MTT (5 mg/mL) was added to each well, and the plate was incubated at 37 °C for 3 h. Finally, 120 μL HCl 4 mM in isopropanol was added to each well to dissolve the formazan crystals. Optical density was measured with a microplate reader (Bio-Rad, Hercules, CA, USA) at 570 nm. Cell viability was calculated by comparing the values of treated with those of untreated cells. Curves and EC50 were calculated using GraphPad Prism 5.03 software.

In the next series the test system is C. glabrata ATCC 90030. Format: cell-based.
A short description of another series: in vitro. Format: in vitro ADME. The settings on record: human, serum. The method, then:
A pool of sera from healthy volunteers (n = 5) was diluted to 50% with RPMI 1640 medium. A 5 μg/mL solution of the peptides in 50% serum was incubated at 37 °C for different time intervals (2, 4, 24, 48, and 72 h). At the established time, trichloroacetic acid was added at a 7.5% concentration, and the sample was centrifuged at 12,000–13,000× g for 15 min. Part of the supernatant was used for the MALDI-TOF analysis (2 μL) and part (250 μL) for the HPLC analysis, after being diluted with 1% TFA (750 μL). Time-zero HPLC and MS-spectroscopy spectra were obtained immediately after mixing the peptide with 50% serum. The presence of the intact peptide was determined in HPLC by spotting and integrating the peptide peak at the correct retention time. The identity of the peptide peak was further also confirmed by MALDI mass spectrometry.

The test system of the next series is E. faecalis Fi74B4. It counts as cell-based, Enterococcus faecalis. The method, then:
(§4) The bacteria reported in Table 1 were used for conventional susceptibility testing experiments. M33D and M33i/l MICs were determined in triplicate on reference and clinical strains using a microdilution assay, performed according to the guidelines of the Clinical and Laboratory Standards Institute. Briefly, strains were grown on Mueller–Hinton (MH) agar plates (Becton Dickinson, Franklin Lakes, NJ, USA) and a single colony for each strain was picked using a sterile cotton swab, streaked in sterile cation-supplemented MH, and measured with a densitometer (Densichek, bioMèrieux, Marcy l’Etoile, France) up to 0.15 optical density. Wells of a microtiter plate containing 50 μL serial-doubling dilutions of the peptides were inoculated with an equal volume of bacterial suspension. The final bacterial inoculum was 5 × 10^4 CFU/well in a volume of 100 μL. […] Assays were performed in triplicate, and the median MIC values were recorded.

The subject of series [4] is E. faecalis PE. It counts as cell-based, Enterococcus faecalis. The method, then:
as §4

The subject of a further series is E. faecalis Fi74B1. Format: cell-based, Enterococcus faecalis. On the procedure: as §4
Series [5] has as its system E. faecalis ATCC 51299. Format: cell-based, Enterococcus faecalis. The method, then: as §4
Series [6] has as its system Enterococcus faecalis and faecium. Format: cell-based. On the procedure:
as §4

Another series concerns C. striatum ATCC. It counts as cell-based. The method, then:
as §4

The next series relates to S. pneumoniae ATCC 49619. It counts as cell-based. On the procedure: as §4
For series [7], the system named is Staphylococcus aureus and epidermidis. Format: cell-based. On the procedure: as §4
For another series, the system named is S. pyogenes CCUG2557. It counts as cell-based. The method, then: as §4
Series [8] relates to E. faecalis PE. It counts as cell-based, Enterococcus faecalis. The settings on record: 24 h preformed biofilm challenged with peptide 14 h at 37 °C, crystal violet OD595, triplicate wells. On the procedure:
as §1, §2, §3

Series [9] concerns E. faecalis ATCC 51299. It counts as cell-based, Enterococcus faecalis. Conditions: 24 h preformed biofilm challenged with peptide 14 h at 37 °C, crystal violet OD595, triplicate wells. On the procedure:
as §1, §2, §3

Another series has as its system C. albicans ATCC 90028. It counts as cell-based.
For the next series, the system named is Candida species. Format: cell-based.
Series [10] concerns E. coli TG1. Format: cell-based, Escherichia coli. Conditions: reference strain; CLSI microdilution, 5 × 10^4 CFU/well, 35° 18–20 h, median of triplicate. The method, then:
as §4
A general note: In broth dilution the organism is exposed to a series of concentrations in liquid medium.

Series [11] has as its system E. coli LC711. Format: cell-based, Escherichia coli. The settings on record: LC711. On the procedure:
as §4

The subject of the next series is C. krusei ATCC 6268. Format: cell-based.
Another series concerns E. faecalis. Conditions: standard-of-care antibiotics against E. faecalis; cited from earlier work. On the procedure: As reported in Table 2, biofilm inhibition was tested against two strains of E. faecalis, ATCC 51,299 and PE endodontic isolate, and two strains of E. coli, TG1 reference strain and LC711 clinical isolate (Table 2). The BPC of M33D was equal to the MIC against E. faecalis reference strain ATCC 51,299 and clinical isolate PE. The BPC of M33i/l was double and equal to the MIC in E. faecalis reference strain and clinical isolate, respectively. The MBIC of both peptides against E. faecalis reference strain and PE was 6 μM, i.e., from two to three times the MIC. The results are particularly promisi ...

In the case of `CC[C@@H](C)[C@@H](NC(=O)[C@@H](CCCCN)NC(=O)[C@H](N)CCCCN)C(=O)N[C@H](CCCNC(=N)N)C(=O)N[C@@H](C(=O)N[C@H](CCCNC(=N)N)C(=O)N[C@H](CC(C)C)C(=O)N[C@H](CO)C(=O)N[C@H](C)C(=O)NCCCC[C@H](NC(=O)[C@@H](C)NC(=O)[C@@H](CO)NC(=O)[C@@H](CC(C)C)NC(=O)[C@@H](CCCNC(=N)N)NC(=O)[C@H](NC(=O)[C@@H](CCCNC(=N)N)NC(=O)[C@H](NC(=O)[C@@H](CCCCN)NC(=O)[C@H](N)CCCCN)[C@H](C)CC)C(C)C)C(=O)NCCCC[C@H](NC(=O)[C@H](CCCCNC(=O)[C@@H](C)NC(=O)[C@@H](CO)NC(=O)[C@@H](CC(C)C)NC(=O)[C@@H](CCCNC(=N)N)NC(=O)[C@H](NC(=O)[C@@H](CCCNC(=N)N)NC(=O)[C@H](NC(=O)[C@@H](CCCCN)NC(=O)[C@H](N)CCCCN)[C@H](C)CC)C(C)C)NC(=O)[C@@H](C)NC(=O)[C@@H](CO)NC(=O)[C@@H](CC(C)C)NC(=O)[C@@H](CCCNC(=N)N)NC(=O)[C@H](NC(=O)[C@@H](CCCNC(=N)N)NC(=O)[C@H](NC(=O)[C@@H](CCCCN)NC(=O)[C@H](N)CCCCN)[C@H](C)CC)C(C)C)C(=O)NCCC(=O)O)C(C)C` [M33D], the MBIC in the series on E. coli TG1 [1] is 3 µM; in the series with E. coli LC711 [2], 3 µM; with E. faecalis PE [8], 6 µM; with E. faecalis ATCC 51299 [9], 6 µM. The 50% effective concentration (EC50) at 24 h in series [3] was determined as 30 µM. Further, the MIC in the series with C. glabrata ATCC 90030 was 12 (64) μM; in the series with E. faecalis Fi74B4, 1.5 (8) μM; against E. faecalis PE [4] it was 1.5 (8) μM; with E. faecalis Fi74B1, 0.8 (4) μM; in the series with E. faecalis ATCC 51299 [5], 3 (16) μM; with C. striatum ATCC, 1.5 µM (≈ 7.02 µg/mL). For the same molecule, the MIC in the series with S. pneumoniae ATCC 49619 is 6 (32) μM; against S. pyogenes CCUG2557 it was 6 (32) μM; against C. albicans ATCC 90028, 5 (24) μM; against E. coli TG1 [10], 1.5 µM (≈ 7.02 µg/mL); with E. coli LC711 [11] it was 1.5 µM (≈ 7.02 µg/mL); in the series on C. krusei ATCC 6268 it was 6 (32) μM. This molecule gave a fraction remaining at 72 h, 5 μg/mL in “in vitro” of 31%. The “MIC range against Enterococcus faecalis and faecium” value in [6] fell in the range of 0.8 to 3 µM. The “MIC range against Staphylococcus aureus and epidermidis” value in series [7] was in the range of 0.4 to 1.5 µM. Also, the “MIC range against Candida species” value in the series on Candida species lay in the range of 5 to 12 µM.
Consider `CC1(C)S[C@@H]2[C@H](NC(=O)[C@H](N)c3ccccc3)C(=O)N2[C@H]1C(=O)O` [ampicillin], for which the “MBIC as multiple of the MIC” value in the series with E. faecalis is listed as 2048 times the MIC.
Regarding `CC(=O)NC[C@H]1CN(c2ccc(N3CCOCC3)c(F)c2)C(=O)O1` [linezolid], in the series with E. faecalis, the “MBIC as multiple of the MIC” value is on record as 1024 times the MIC.

By EC50 is commonly meant the concentration at which the effect is half-maximal. The fraction remaining is the share of the starting amount still present when the sample was taken.
